Assay results: PubChem BioAssay (NCI)
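Method: 48-hour compound exposure of cells in 96-well plates, five concentrations, linear interpolation of endpoints. TGI: concentration producing complete growth inhibition.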

How the values were obtained:
Experiment in all cases: NCI tumour cell line growth inhibition, 48 h
CAKI-1 renal = test system: CAKI-1 renal
HCC-2998 colon = test system: HCC-2998 colon
HCT-116 colon = test system: HCT-116 colon
HL-60(TB) leukemia = test system: HL-60(TB) leukemia
NCI-H522 lung = test system: NCI-H522 lung
OVCAR-3 ovarian = test system: OVCAR-3 ovarian
SF-295 CNS = test system: SF-295 CNS
SK-MEL-2 melanoma = test system: SK-MEL-2 melanoma
SK-MEL-28 melanoma = test system: SK-MEL-28 melanoma
SK-MEL-5 melanoma = test system: SK-MEL-5 melanoma
SN12C renal = test system: SN12C renal
SW-620 colon = test system: SW-620 colon
TK-10 renal = test system: TK-10 renal
CCRF-CEM leukemia = test system: CCRF-CEM leukemia
DU-145 prostate = test system: DU-145 prostate
MCF7 breast = test system: MCF7 breast
MDA-MB-435 = test system: MDA-MB-435
PC-3 prostate = test system: PC-3 prostate
T-47D breast = test system: T-47D breast
MDA-MB-231 breast = test system: MDA-MB-231 breast

With `CCCCCCC(C)OC(=O)/C=C(\CC(=O)OC(C)CCCCCC)C(=O)OC(C)CCCCCC` (stereo unspecified) the TGI (CAKI-1 renal) was > 100 µM, the TGI (HCC-2998 colon) was > 100 µM and the TGI (HCT-116 colon) was > 100 µM. For the same compound, the TGI (HL-60(TB) leukemia) was > 100 µM, the TGI (NCI-H522 lung) was > 100 µM and the TGI (OVCAR-3 ovarian) was > 100 µM. The TGI (SF-295 CNS) was > 100 µM, the TGI (SK-MEL-2 melanoma) was > 100 µM and the TGI (SK-MEL-28 melanoma) was > 100 µM. The TGI (SK-MEL-5 melanoma) was > 100 µM, the TGI (SN12C renal) was > 100 µM and the TGI (SW-620 colon) was > 100 µM. The TGI (TK-10 renal) was > 100 µM.
With `CCN(CC)C(=O)N1CN(c2ccccc2)C2(CCN(CCCSc3ccc(F)cc3)CC2)C1=O` the TGI (CAKI-1 renal) was > 100 µM, the TGI (CCRF-CEM leukemia) was > 100 µM and the TGI (DU-145 prostate) was 40.7 µM. The TGI (HCT-116 colon) was 12.9 µM, the TGI (HL-60(TB) leukemia) was 19.4 µM and the TGI (MCF7 breast) was > 100 µM. For the same compound, the TGI (MDA-MB-435) was 42.5 µM, the TGI (NCI-H522 lung) was 30.5 µM and the TGI (OVCAR-3 ovarian) was 18.6 µM. The TGI (PC-3 prostate) was 36.5 µM, the TGI (SF-295 CNS) was 25.1 µM and the TGI (SK-MEL-2 melanoma) was 21 µM. For the same compound, the TGI (SK-MEL-28 melanoma) was 37.1 µM, the TGI (SK-MEL-5 melanoma) was 12.3 µM and the TGI (SN12C renal) was 39.8 µM. The TGI (SW-620 colon) was 43 µM, the TGI (T-47D breast) was 47.1 µM and the TGI (TK-10 renal) was 31.5 µM.
With `CSCCC(NC(=O)OCc1ccccc1)NC(=O)OCc1ccccc1` the TGI (CAKI-1 renal) was > 100 µM, the TGI (DU-145 prostate) was > 100 µM and the TGI (HCC-2998 colon) was > 100 µM. The TGI (HCT-116 colon) was > 100 µM, the TGI (MDA-MB-231 breast) was > 100 µM and the TGI (MDA-MB-435) was > 100 µM. The TGI (NCI-H522 lung) was > 100 µM, the TGI (OVCAR-3 ovarian) was > 100 µM and the TGI (PC-3 prostate) was > 100 µM. The TGI (SF-295 CNS) was > 100 µM, the TGI (SK-MEL-2 melanoma) was > 100 µM and the TGI (SK-MEL-28 melanoma) was > 100 µM. For the same compound, the TGI (SK-MEL-5 melanoma) was > 100 µM, the TGI (SN12C renal) was > 100 µM and the TGI (SW-620 colon) was > 100 µM. For the same compound, the TGI (T-47D breast) was > 100 µM and the TGI (TK-10 renal) was > 100 µM.
`c1ccc(C2=NCCc3cc4c(cc32)OCO4)cc1` was tested, and the TGI (CAKI-1 renal) was > 100 µM, the TGI (DU-145 prostate) was > 100 µM and the TGI (HCC-2998 colon) was > 100 µM. For the same compound, the TGI (MCF7 breast) was > 100 µM, the TGI (MDA-MB-231 breast) was > 100 µM and the TGI (MDA-MB-435) was > 100 µM. The TGI (NCI-H522 lung) was > 100 µM, the TGI (OVCAR-3 ovarian) was > 100 µM and the TGI (PC-3 prostate) was > 100 µM. The TGI (SF-295 CNS) was > 100 µM, the TGI (SK-MEL-2 melanoma) was > 100 µM and the TGI (SK-MEL-28 melanoma) was > 100 µM. For the same compound, the TGI (SK-MEL-5 melanoma) was > 100 µM, the TGI (SN12C renal) was > 100 µM and the TGI (SW-620 colon) was > 100 µM. For the same compound, the TGI (T-47D breast) was > 100 µM and the TGI (TK-10 renal) was > 100 µM.
For `O=[N+]([O-])c1ccc2c(c1)c(S(=O)(=O)O)cc1nonc12`, the TGI (CAKI-1 renal) was > 100 µM, the TGI (HCT-116 colon) was > 100 µM and the TGI (HL-60(TB) leukemia) was > 100 µM. The TGI (MCF7 breast) was > 100 µM, the TGI (MDA-MB-231 breast) was > 100 µM and the TGI (MDA-MB-435) was > 100 µM. For the same compound, the TGI (NCI-H522 lung) was > 100 µM, the TGI (OVCAR-3 ovarian) was > 100 µM and the TGI (PC-3 prostate) was > 100 µM. For the same compound, the TGI (SF-295 CNS) was > 100 µM, the TGI (SK-MEL-2 melanoma) was > 100 µM and the TGI (SK-MEL-28 melanoma) was > 100 µM. The TGI (SK-MEL-5 melanoma) was > 100 µM, the TGI (SN12C renal) was > 100 µM and the TGI (SW-620 colon) was > 100 µM. The TGI (T-47D breast) was > 100 µM and the TGI (TK-10 renal) was > 100 µM.
With `C(=C\c1cc(-c2ccc3ccccc3n2)nc2ccc3ccccc3c12)/c1ccc2ccccc2n1` the TGI (CAKI-1 renal) was > 100 µM, the TGI (CCRF-CEM leukemia) was > 100 µM and the TGI (DU-145 prostate) was > 100 µM. For the same compound, the TGI (HCC-2998 colon) was > 100 µM, the TGI (HCT-116 colon) was > 100 µM and the TGI (HL-60(TB) leukemia) was > 100 µM. The TGI (MCF7 breast) was > 100 µM, the TGI (MDA-MB-231 breast) was > 100 µM and the TGI (MDA-MB-435) was > 100 µM. For the same compound, the TGI (OVCAR-3 ovarian) was > 100 µM, the TGI (PC-3 prostate) was > 100 µM and the TGI (SF-295 CNS) was > 100 µM. For the same compound, the TGI (SK-MEL-28 melanoma) was > 100 µM, the TGI (SK-MEL-5 melanoma) was > 100 µM and the TGI (SN12C renal) was > 100 µM. The TGI (SW-620 colon) was > 100 µM and the TGI (TK-10 renal) was > 100 µM.
For `c1ccc(C(CCN2CC3CCC(CC3)C2)c2ccccc2)cc1`, the TGI (CAKI-1 renal) was > 100 µM, the TGI (DU-145 prostate) was > 100 µM and the TGI (HCT-116 colon) was 63.8 µM. For the same compound, the TGI (MCF7 breast) was 29 µM, the TGI (MDA-MB-231 breast) was 38.3 µM and the TGI (MDA-MB-435) was 65.4 µM. For the same compound, the TGI (NCI-H522 lung) was 31.9 µM, the TGI (OVCAR-3 ovarian) was 44.3 µM and the TGI (PC-3 prostate) was > 100 µM. For the same compound, the TGI (SF-295 CNS) was 55 µM, the TGI (SK-MEL-2 melanoma) was 37.8 µM and the TGI (SK-MEL-28 melanoma) was > 100 µM. The TGI (SK-MEL-5 melanoma) was 30.1 µM, the TGI (SN12C renal) was 84.7 µM and the TGI (SW-620 colon) was > 100 µM. It also gave a TGI (T-47D breast) of 49.1 µM and a TGI (TK-10 renal) of 72.7 µM.
